Patent publication US8680272B2, “3-arylethynyl substituted quinazolinone compounds” (Council of Scientific & Industrial Research, priority 2011, dated 2014)

Experiments:
HOP-92 = experiment: Anticancer activity, SRB assay, non-small lung cell line HOP-92; type: cell-based, human; settings: Non-small lung HOP-92, 48 h continuous drug exposure, —^b means GI50 values not attained at the concentrations used
Procedure: (§1) Some of biological activity studies were carried out at the National Cancer Institute (NCI), Maryland, USA.
(§2) The compounds were evaluated for anticancer activity against sixty human cancer cells derived from nine cancer types (leukemia cell line, non-small-cell lung cell line, colon cell line, CNS cell line, melanoma cell line, ovarian cell line, prostate cell line, renal cell line and breast cancer cell line) as shown in Table 1. For each compound, dose response curves for each cell line were measured at a minimum of five concentrations at 10 fold dilutions. A protocol of 48 h continuous drug exposure was used and a sulforhodamine B (SRB) protein assay was used to estimate cell viability or growth.

SNB-75 = experiment: Anticancer activity, SRB assay, CNS cell line SNB-75; type: cell-based, human; settings: CNS SNB-75, 48 h continuous drug exposure, —^b means GI50 values not attained at the concentrations used
Procedure: as §1, §2

HT29 = experiment: Anticancer activity, SRB assay, colon cell line HT29; type: cell-based; settings: Homo sapiens, HT-29, 48 h continuous drug exposure, read-out: Growth Inhibition GI50
Procedure: as §1, §2

CAKI-1 = experiment: Anticancer activity, SRB assay, renal cell line CAKI-1; type: cell-based; settings: Homo sapiens; Renal CAKI-1; 48 h continuous drug exposure; read-out: Growth Inhibition GI50
Procedure: as §1, §2

MCF7 = experiment: Anticancer activity, SRB assay, breast cell line MCF7; type: cell-based; settings: Homo sapiens, 48 h continuous drug exposure, read-out: Growth Inhibition GI50
Procedure: as §1, §2

SF-268 = experiment: Anticancer activity, SRB assay, CNS cell line SF-268; type: cell-based, human; settings: CNS SF-268, 48 h continuous drug exposure, —^b means GI50 values not attained at the concentrations used
Procedure: as §1, §2

[1] = test system: seven ovarian cancer cell lines (IGROV1, OVCAR-3, OVCAR-4, OVCAR-5, OVCAR-8, NCI/ADR-RES and SK-OV-3); experiment: Anticancer activity, SRB assay, ovarian panel; type: cell-based, human; settings: for GI50: Homo sapiens, seven ovarian cancer cell lines, exposure period of at least 48 h, read-out: GI50 (range over the panel); for mean graph midpoint values (MG_MID) of log10 TGI (Log10TGI50) / mean graph midpoint values (MG_MID) of Log10LC50 / mean graph midpoint values (MG_MID) of Log10GI50: Ovarian; for mean graph midpoint values (MG_MID) of log10 TGI (Log10TGI50): log value of concentration of the compound resulting in total inhibition of net cell growth; for mean graph midpoint values (MG_MID) of Log10LC50: log value of the concentration of compounds leading to 50% net cell death; for mean graph midpoint values (MG_MID) of Log10GI50: log values of concentration in mol/L causing 50% inhibition of net cell growth
Procedure: as §1, §2

[2] = test system: eight renal cancer cell line (786-0, A498, ACHN, CAKI-1, SN12C, TK-10, UO-31 and RXF 393); experiment: Anticancer activity, SRB assay, renal panel; type: cell-based, human; set-up: mean graph midpoint values (MG_MID) of Log10LC50 / mean graph midpoint values (MG_MID) of log10 TGI (Log10TGI50): unit not given here; settings: for GI50: Homo sapiens, eight renal cancer cell line, exposure period of at least 48 h, read-out: in vitro anticancer activity (range over the panel); for mean graph midpoint values (MG_MID) of log10 TGI (Log10TGI50) / mean graph midpoint values (MG_MID) of Log10LC50 / mean graph midpoint values (MG_MID) of Log10GI50: Renal; for mean graph midpoint values (MG_MID) of log10 TGI (Log10TGI50): log value of concentration of the compound resulting in total inhibition of net cell growth; for mean graph midpoint values (MG_MID) of Log10LC50: log value of the concentration of compounds leading to 50% net cell death; for mean graph midpoint values (MG_MID) of Log10GI50: log values of concentration in mol/L causing 50% inhibition of net cell growth
Procedure: as §1, §2

MALME-3M = experiment: Anticancer activity, SRB assay, melanoma cell line MALME-3M; type: cell-based; settings: Homo sapiens; Melanoma MALME-3M; 48 h continuous drug exposure; read-out: Growth Inhibition GI50
Procedure: as §1, §2

PC-3 = experiment: Anticancer activity, SRB assay, prostate cell line PC-3; type: cell-based, human; settings: Prostate PC-3, 48 h continuous drug exposure, —^b means GI50 values not attained at the concentrations used
Procedure: as §1, §2

[3] = test system: nine non-small cell lung cancer cell lines (A549/ATCC, EKVX, HOP-62, HOP-92, NCI-H226, NCI-H23, NCI-H322M, NCI-H460 and NCI-H522); experiment: Anticancer activity, SRB assay, non-small cell lung panel; type: cell-based, human; settings: Non-small cell lung; for mean graph midpoint values (MG_MID) of log10 TGI (Log10TGI50): log value of concentration of the compound resulting in total inhibition of net cell growth; for mean graph midpoint values (MG_MID) of Log10LC50: log value of the concentration of compounds leading to 50% net cell death; for mean graph midpoint values (MG_MID) of Log10GI50: log values of concentration in mol/L causing 50% inhibition of net cell growth
Procedure: as §1, §2

[4] = as above; type: cell-based, human; settings: Homo sapiens; nine non-small cell lung cancer cell lines; exposure period of at least 48 h; read-out: GI50 (range over the panel)
Procedure: as §1, §2

MOLT-4 = experiment: Anticancer activity, SRB assay, leukemia cell line MOLT-4; type: cell-based; settings: Homo sapiens; Leukemia MOLT-4; 48 h continuous drug exposure; read-out: Growth Inhibition GI50
Procedure: as §1, §2

NCI-H23 = experiment: Anticancer activity, SRB assay, non-small lung cell line NCI-H23; type: cell-based; settings: Homo sapiens, Non-small lung NCl-H23, 48 h continuous drug exposure, read-out: Growth Inhibition GI50
Procedure: as §1, §2

SR = experiment: Anticancer activity, SRB assay, leukemia cell line SR; type: cell-based; settings: Homo sapiens, 48 h continuous drug exposure, read-out: Growth Inhibition GI50
Procedure: as §1, §2

SF-295 = experiment: Anticancer activity, SRB assay, CNS cell line SF-295; type: cell-based, human; settings: CNS SF-295, 48 h continuous drug exposure, —^b means GI50 values not attained at the concentrations used
Procedure: as §1, §2

OVCAR-5 = experiment: Anticancer activity, SRB assay, ovarian cell line OVCAR-5; type: cell-based, human; settings: Ovarian OVCAR-5, 48 h continuous drug exposure, —^b means GI50 values not attained at the concentrations used
Procedure: as §1, §2

NCI-H522 = experiment: Anticancer activity, SRB assay, non-small lung cell line NCI-H522; type: cell-based, human; settings: Non-small lung NCl-H522, 48 h continuous drug exposure, —^b means GI50 values not attained at the concentrations used
Procedure: as §1, §2

EKVX = experiment: Anticancer activity, SRB assay, non-small lung cell line EKVX; type: cell-based; settings: Homo sapiens, 48 h continuous drug exposure, read-out: Growth Inhibition GI50
Procedure: as §1, §2

OVCAR-4 = experiment: Anticancer activity, SRB assay, ovarian cell line OVCAR-4; type: cell-based, human; settings: Ovarian OVCAR-4, 48 h continuous drug exposure, —^b means GI50 values not attained at the concentrations used
Procedure: as §1, §2

UO-31 = experiment: Anticancer activity, SRB assay, renal cell line UO-31; type: cell-based, human; settings: Renal UO-31, 48 h continuous drug exposure, —^b means GI50 values not attained at the concentrations used
Procedure: as §1, §2

SK-OV-3 = experiment: Anticancer activity, SRB assay, ovarian cell line SK-OV-3; type: cell-based, human; settings: Ovarian SK-OV-3, 48 h continuous drug exposure, —^b means GI50 values not attained at the concentrations used
Procedure: as §1, §2

CCRF-CEM = experiment: Anticancer activity, SRB assay, leukemia cell line CCRF-CEM; type: cell-based, human; settings: 48 h continuous drug exposure, —^b means GI50 values not attained at the concentrations used
Procedure: as §1, §2

[5] = test system: two prostate cancer cell line (PC-3, DU-145); experiment: Anticancer activity, SRB assay, prostate panel; type: cell-based, human; settings: for mean graph midpoint values (MG_MID) of log10 TGI (Log10TGI50) / mean graph midpoint values (MG_MID) of Log10LC50 / mean graph midpoint values (MG_MID) of Log10GI50: Prostate; for mean graph midpoint values (MG_MID) of log10 TGI (Log10TGI50): log value of concentration of the compound resulting in total inhibition of net cell growth; for mean graph midpoint values (MG_MID) of Log10LC50: log value of the concentration of compounds leading to 50% net cell death; for mean graph midpoint values (MG_MID) of Log10GI50: log values of concentration in mol/L causing 50% inhibition of net cell growth
Procedure: as §1, §2

ACHN = experiment: Anticancer activity, SRB assay, renal cell line ACHN; type: cell-based, human; settings: 48 h continuous drug exposure, —^b means GI50 values not attained at the concentrations used
Procedure: as §1, §2

[6] = Homo sapiens, read-out: Growth Inhibition GI50

| Compound | GI50 (HT29) [µM] | GI50 (CAKI-1) [µM] | GI50 (MCF7) [µM] | GI50 [1] [µM] | mean graph midpoint values (MG_MID) of log10 TGI (Log10TGI50) [1] | mean graph midpoint values (MG_MID) of Log10LC50 [1] | mean graph midpoint values (MG_MID) of Log10GI50 [1] [mol/L] | GI50 [2] [µM] | mean graph midpoint values (MG_MID) of log10 TGI (Log10TGI50) [2] | mean graph midpoint values (MG_MID) of Log10LC50 [2] | mean graph midpoint values (MG_MID) of Log10GI50 [2] [mol/L] | GI50 (MALME-3M) [µM] | mean graph midpoint values (MG_MID) of log10 TGI (Log10TGI50) [3] | mean graph midpoint values (MG_MID) of Log10LC50 [3] | mean graph midpoint values (MG_MID) of Log10GI50 [3] [mol/L] | GI50 [4] [µM] | GI50 (MOLT-4) [µM] | GI50 (NCI-H23) [µM] | GI50 (SR) [µM] | GI50 (EKVX) [µM] | further results |
| --- | --- | --- | --- | --- | --- | --- | --- | --- | --- | --- | --- | --- | --- | --- | --- | --- | --- | --- | --- | --- | --- |
| Cc1cc(C#Cc2ccccc2)ccc1-n1c(/C=C/c2cc(O)ccc2O)nc2ccccc2c1=O [Compound 4c, (E)-2-(2,5-Dihydroxystyryl)-3-(2-methyl-4-(phenylethynyl)phenyl)quinazolin-4(3H)-one] | 1.95 | 2.15 | 1.45 | 1.39 to 2.45 | −5.31 | −4.61 | −5.72 | 0.37 to 2.15 | −5.43 | −4.93 | −5.86 | 1.5 | −5.44 | −4.91 | −5.83 | 1.24 to 1.71 | 1.14 | 1.48 | 1.1 | 1.24 | GI50 (HOP-92; [6]): 1.54 µM; GI50 (SNB-75; [6]): 1.3 µM; GI50 (SF-268; [6]): 1.31 µM; GI50 (PC-3; [6]): 2.19 µM; GI50 (SF-295; [6]): 1.35 µM; GI50 (OVCAR-5; [6]): 1.39 µM; GI50 (NCI-H522; Homo sapiens, NCI-H522, read-out: Growth Inhibition GI50): 1.29 µM; GI50 (OVCAR-4; [6]): 2.4 µM; GI50 (UO-31; [6]): 1.16 µM; GI50 (SK-OV-3; [6]): 1.83 µM; GI50 (CCRF-CEM; [6]): 1.54 µM; GI50 ([5]; Homo sapiens, DU-145, two prostate cancer cell line, exposure period of at least 48 h, read-out: GI50 (range over the panel)): 0.419 to 2.19 µM; mean graph midpoint values (MG_MID) of log10 TGI (Log10TGI50) [5]: −5.43; mean graph midpoint values (MG_MID) of Log10LC50 [5]: −4.68; mean graph midpoint values (MG_MID) of Log10GI50 [5]: −6.17 mol/L; GI50 (ACHN; [6]): 1.44 µM |
| COc1ccc2cc(C#Cc3ccc(-n4c(/C=C/c5cc(OC)c(OC)c(OC)c5)nc5ccccc5c4=O)c(C)c3)ccc2c1 [Compound 6l, (E)-3-(4-((6-Methoxynaphthalen-2-yl)ethynyl)-2-methylphenyl)-2-(3,4,5-trimethoxystyryl)quinazolin-4(3H)-one] | 3.41 | 4.91 | 63.8 | 19.3 | >−4.00 | >−4.00 | −4.10 | 4.91 | >−4.00 | >−4.00 | −4.16 | 42.6 | >−4.00 | >−4.00 | −4.32 | 2.48 to 40.5 | 4.66 | 40.5 | 0.395 | 24.1 | Growth Inhibition GI50 (HOP-92): —^b; Growth Inhibition GI50 (SNB-75): —^b; Growth Inhibition GI50 (SF-268): —^b; Growth Inhibition GI50 (PC-3): —^b; Growth Inhibition GI50 (SF-295): —^b; Growth Inhibition GI50 (OVCAR-5): —^b; Growth Inhibition GI50 (NCI-H522): —^b; Growth Inhibition GI50 (OVCAR-4): —^b; Growth Inhibition GI50 (UO-31): —^b; Growth Inhibition GI50 (SK-OV-3): —^b; Growth Inhibition GI50 (CCRF-CEM): —^b; mean graph midpoint values (MG_MID) of log10 TGI (Log10TGI50) [5]: >−4.00; mean graph midpoint values (MG_MID) of Log10LC50 [5]: >−4.00; mean graph midpoint values (MG_MID) of Log10GI50 [5]: −4.00 mol/L; Growth Inhibition GI50 (ACHN): —^b |
